Measurements reported in patent US8980224B2, “Method of cardiac imaging” (GE Healthcare AS, priority 2004, dated 2015).

How the values were obtained:
myocardial tissue = test: Cardiac 13C-MR imaging in the pig before and after occlusion of the circumflexa; format: in vivo; conditions: 0.22 mmol/kg i.v., imaging 30 s after start of injection
Description: The pig (25 kg) was anaesthetised using a cocktail containing isotonic NaCl (26 vol %), Ketalar (50 mg/ml) (Pfizer AB) (42 vol %), Norcuron (10 mg+5 ml sterile water) (Organon) (21 vol %) and Midazolam (5 mg/ml) (Pharma Hameln) (11% vol) administered using an infusion pump at a rate of 0.6 ml/min.
After the first injection with ^13C-pyruvate the pig was removed from the MR scanner. Under X-ray guidance, a balloon catheter was inserted into the arteria coronaria sinistra and the circumflexa was blocked for a 15 minute period. During the whole operation ECG and blood pressure were measured. 90 Minutes after the end of the ischemic period, the pig was imaged again and ^13C-images were acquired from (about) the same location as were the control measurement was carried out.
The pig was positioned in a pig MR coil (Rapid Biomedical, Germany) and imaged using a standard clinical cardiac proton MR imaging sequence library to get anatomical information and to get the short axis view orientation of the myocardium (see proton reference image in the figures to see an example of short axis view).
Based on the proton frequency found by the MR system the MR frequency for ^13C1-alanine was calculated according to the following equation: Frequency ^13C1-alanine=0.25144×[(system frequency proton×1.00021)−0.000397708]
The frequency calculated positioned the MR signal arising from ^13C1-alanine on resonance with ^13C1-lactate on the left and ^13C1-pyruvate and ^13C1-bicarbonate resonating on the right of ^13C1-alanine. An unlocalised MR spectroscopy sequence was run to ensure that the ^13C-MR coil and the system MR frequency had been set up correctly. The ^13C-image location was positioned to cover the myocardium (short axis view) (slice thickness 20 mm, in plane pixel size 7.5×7.5 mm^2). In the reconstruction phase, the image data was zero-filled to result in 3.75×3.75×20 mm^3 resolution. 16 ml of ^13C1-pyruvate (327 mM) was injected (0.22 mmol/kg) during a period of 12 s (1.3 ml/s) i.v. into the front leg and 30 s after the start of the injection (i.e. 18 s after finishing the injection), the chemical shift ^13C-MR sequence was started.
In the reconstruction phase, the matrix was zero-filled to 32×32, a mathematical operation that helps to improve the spatial resolution. The dataset was analysed on the MRI scanner with software provided by the manufacturer. The results are metabolic images for ^13C-pyruvate, ^13C-alanine, ^13C-lactate and ^13C-bicarbonate.

[1] = 13C polarisation obtained by the DNP method, assessed with 13C-NMR; format: physicochemical; conditions: 1.2 K, 3.35 T
Description: A 20 mM solution was prepared by dissolving 5.0 mg of the radical of Example 1 in ^13CI-pyruvic acid (164 μl). The sample was mixed to homogeneity and an aliquot of the solution (41 mg) was placed in a sample cup and inserted in the DNP polariser.
The sample was polarised under DNP conditions at 1.2 K in a 3.35 T magnetic field under irradiation with microwave (93.950 GHz). After 2 hours the polarisation was stopped and the sample was dissolved using a dissolution device according to WO-A-02/37132 in an aqueous solution of sodium hydroxide and tris(hydroxymethyl)aminomethane (TRIS) to provide a neutral solution of hyperpolarised sodium ^13C1-pyruvate. The dissolved sample was rapidly analysed with ^13C-NMR to assess the polarisation and a 19.0% ^13C polarisation was obtained.
A 15 mM solution was prepared by dissolving the radical of Example 1 (209.1 mg) in a mixture of ^13C1-pyruvic acid (553 mg) and unlabelled pyruvic acid (10.505 g). The sample was mixed to homogeneity and an aliquot of the solution (2.015 g) was placed in a sample cup and inserted in the DNP polariser.
The sample was polarised under DNP conditions at 1.2 K in a 3.35 T magnetic field under irradiation with microwave (93.950 GHz). […] The filtered solution was rapidly analysed with ^13C-NMR to assess the polarisation, 16.5% ^13C polarisation was obtained. The residual radical concentration was subsequently analysed with a UV spectrophotometer meter at 469 nm and was determined to be below the detection limit of 0.1 μM.
A 20 mM solution was prepared by dissolving Tris(8-carboxy-2,2,6,6-tetra(hydroxyethoxy)methyl-benzo[1,2-d:4,5-d′]-bis-(1,3)-dithiole-4-yl)methyl sodium salt in ^13C1-pyruvic acid (83.1 mg). […] The DNP enhancement was calculated from a measurement of the thermal equilibrium ^13C-NMR signal and the enhanced NMR signal. […]

[2] = T1 relaxation of 13C-pyruvate in human full blood; format: physicochemical; conditions: human full blood at 37° C.
Text: The amount of alanine, bicarbonate and lactate is dependent on the metabolic status of the myocardial tissue under investigation.

[3] = 90 minutes after 15 minute occlusion of the circumflexa
[4] = before vs 90 minutes after 15 minute occlusion

Row | 13C polarisation ([1]; Example 2: 20 mM radical of Example 1 in 13C1-pyruvic acid, 93.950 GHz, 2 hours, dissolved in NaOH/TRIS, liquid 13C-NMR) | 13C polarisation ([1]; Example 3: 15 mM radical of Example 1, 4 hours, dissolved in NaOH/TRIS, 0.5 M pyruvate, radical removed on C18 column, filtered solution) | T1 relaxation [2] | 13C polarisation ([1]; Example 4: 20 mM tris(8-carboxy-2,2,6,6-tetra(hydroxyethoxy)methyl-benzo-bis-dithiole-4-yl)methyl sodium salt, calculated from thermal equilibrium and enhanced NMR signal) | Compound | 13C-bicarbonate signal in myocardial tissue at risk (compared to the control) (myocardial tissue; [3]) | 13C-lactate signal in myocardial tissue at risk (myocardial tissue; [3]) | 13C-alanine image before and after the ischemic period (myocardial tissue; [4]) | 13C-pyruvate image before and after the ischemic period (myocardial tissue; [4])
1 | 19.0% | 16.5% | about 42 s | – | CC(=O)C(=O)O [^13C-pyruvate, sodium ^13C1-pyruvate] | strongly reduced | positive contrast | No difference | No difference
2 | – | – | – | 16% | CC(=O)[13C](=O)O [^13C1-pyruvic acid] | – | – | – | –
